Entries after “also recorded” stand apart in the source; their conditions may differ.
Legend:
[1] = molecular target: T1, αS fibrils, Site 2 ([^3H]Tg-190b) (Homo sapiens, UniProt P37840); experiment: Single-concentration radioligand competition screen (100 nM compound) against [^3H]Tg-190b; type: binding; conditions: 100 nM αS fibrils, [^3H]Tg-190b 6 nM
Method: Compounds 1–17 were purchased from vendors that were listed on the ZINC15 compound library. […] Total binding was measured in the absence of competitor and nonspecific binding was determined in reactions containing unlabeled Tg-190b (1 μM) or BF2846 (0.5 μM). […] Filters containing the bound ligand were mixed with 3 mL of scintillation cocktail (MicroScint-20, PerkinElmer, Inc.) and counted after 12 h of incubation on a MicroBeta System (PerkinElmer, Inc.). All data points were measured in triplicate. Screening of compounds 18–56 for the SAR study was performed in a similar fashion.
In Vitro Radioligand Binding Assays
Screening compound library. Compounds 1-17 (Fig. S8) were purchased from vendors that were listed on the ZINC15 compound library. 3 Compounds were screened for αS binding and after identifying the lead compound, 6, the core structure of compound 6 and its pyrazole or oxadiazole derivatives were used for similarity search on the Mcule, Inc. website.12 The similarity threshold was set to higher than 0.8, then compound 18-56 (Fig. S9) were chosen and ordered from the four companies mentioned above.
In order to screen the purchased compounds for αS binding, 100 nM solutions of each compound (1-56) were incubated for 1 hour at 37 °C with 100 nM αS fibrils and [3H]Tg-190b (6 nM) or [3H]BF2846 (3 nM) in 50 mM Tris-HCl, pH 7.4. Total binding was measured in the absence of competitor and nonspecific binding was determined in reactions containing unlabeled Tg-190b (1 µM) or BF2846 (0.5 µM). After incubation, bound and free radioligand were […]
scintillation cocktail (MicroScint-20, PerkinElmer; Waltham, MA, USA) and counted after 12 h of incubation on a MicroBeta System (PerkinElmer). All data points were acquired in triplicate.
Percentage of bound radioligand relative to total binding was plotted and data was analyzed by One-Way ANOVA, comparing the mean of each data set to the mean of total binding. […]
are shown in Fig. 2 in the main text, and Fig. S8 and S10.

[2] = molecular target: T1, αS fibrils, Site 2 ([^3H]Tg-190b); experiment: Competition binding assay with Site 2 radioligand [^3H]Tg-190b on αS fibrils; conditions: αS fibrils 100 nM, [^3H]Tg-190b 6 nM, 1 h 37 °C; 95% confidence intervals in parentheses in Table 1 (n = 3)
Method: (§1) Fig. S10 Screening of SAR Library Derived from Compound 6. Site 2 radioligand competition binding assays with [3H]Tg-190b. ANOVA was performed with Dunnett’s multiple comparisons test, where […]
(§2) *P<0.0332, **P<0.0021, ***P<0.0002 and ****P<0.0001.
(§3) Competition binding assay. αS fibrils (100 nM for Site 2 and 50 nM for Site 9) were mixed with Site 2 ligand [3H]Tg-190b (6 nM) or Site 9 ligand [3H]BF2846 (3 nM) and varying concentrations of unlabeled compounds 2, 6, 24, 28, 31, 39, 40, or 52. Compounds were diluted in 50 mM Tris-HCl buffer (pH 7.4) and mixed with fibrils and radioligand in a total volume of 150 µL. Total binding was measured in the absence of competitor and nonspecific binding was determined in reactions containing unlabeled Tg-190b (1 µM) or BF2846 (0.5 µM). In a duplicate set of binding […]
(§4) binding to the filter paper. Reactions were incubated at 37 °C for 1 h. After incubation, bound […]
(§5) Filters containing the bound ligand were mixed with 3 mL of scintillation cocktail (MicroScint-20, PerkinElmer) and counted after 12 h of incubation on a MicroBeta System (PerkinElmer). All data points were acquired in triplicate.
(§6) (1 picture or pasted object on this page, not shown here)
(§7) The measured cpm values were converted to % specific binding as described by the equation […]
(§8) % specific binding = !"#$"#% "# ’() *+),)#-) ./ -.0*)’"’.+1#.#,*)-"/"- !"#$"#% ∗ 100 ’.’23 !"#$"#%1#.#,*)-"/"- !"#$"#%
(§9) IC50 values were calculated by fitting the data to Equation S1 below by non-linear regression, using GraphPad Prism software:
(§10) Y = Bottom + (Top-Bottom) / (1+ 10(813.%9:;<)) (S1) where logIC50 is the log of the concentration of competitor that results in binding half-way between Bottom and Top; Top and Bottom are plateaus in the units of Y axis; they are binding observed in the absence of competitor and in the presence of a maximal concentration of competitor, respectively. Binding curves for compounds 2 and 6 are shown in Fig. 2 in the main text and for compounds 6, 24, 28, 31, 39, 40, and 52 in Figs. S11 and S12.

[3] = molecular target: αS fibrils, Site 9 ([^3H]BF2846) (Homo sapiens, UniProt P37840); experiment: Competition binding assay with Site 9 radioligand [^3H]BF2846 on αS fibrils; conditions: αS fibrils 50 nM, [^3H]BF2846 3 nM, 1 h 37 °C; 95% confidence intervals in parentheses (n = 3)
Method: as §1, §2, §3, §4, §5, §6, §7, §8, §9, §10

αS fibrils = αS fibrils (Homo sapiens, UniProt P37840)

SMILES: COc1ccc(OCC(=O)Nc2noc(-c3ccccc3)n2)cc1 [Compound 48]
- Binding in Site 2 radioligand competition screen (in words) [1]: bound more poorly than the corresponding isoxazole compound

SMILES: Cc1ccc(OCC(=O)Nc2cc(-c3ccc(F)c(F)c3)no2)cc1C [Compound 40]
- IC50 [2]: 19.6 nM
- IC50 [3]: > 1000 nM
- Binding in Site 2 radioligand competition screen (in words) [1]: moderate to strong binding

SMILES: COc1ccc(OCC(=O)Nc2cc(-c3ccc(F)c(F)c3)no2)cc1 [Compound 39]
- IC50 [2]: 95.7 nM
- IC50 [3]: > 1000 nM
- Binding in Site 2 radioligand competition screen (in words) [1]: moderate to strong binding

SMILES: COc1ccc(OCC(=O)Nc2cc(-c3ccc(Br)cc3)no2)cc1 [Compound 31]
- IC50 [2]: 68.7 nM
- IC50 [3]: 37 nM
- Binding in Site 2 radioligand competition screen (in words) [1]: moderate to strong binding

SMILES: COc1ccc(OCC(=O)Nc2cc(-c3ccc(F)cc3)no2)cc1 [Compound 34]
- Binding in Site 2 radioligand competition screen (in words) [1]: moderate to strong binding

SMILES: COc1ccc(OCC(=O)Nc2cc(-c3ccc(C)cc3)no2)cc1 [Compound 19]
- Binding in Site 2 radioligand competition screen (in words) [1]: moderate to strong binding

SMILES: O=C(COc1ccccc1)Nc1noc(-c2ccccc2)n1 [Compound 51]
- Binding in Site 2 radioligand competition screen (in words) [1]: bound more poorly than the corresponding isoxazole compound

SMILES: CC(Oc1ccc(F)cc1)C(=O)Nc1cc(-c2ccccc2)no1 (centres unmarked) [Compound 23]
- Binding in Site 2 radioligand competition screen (in words) [1]: bind poorly

SMILES: Cc1ccc(OCC(=O)Nc2cc(-c3ccc(I)cc3)no2)cc1C [Compound 61]
- Kd (αS fibrils): 1 nM
- Selectivity for αS fibrils over amyloid β (Aβ42 fibrils) (αS fibrils; from saturation binding Kd values): ~5 fold

SMILES: COc1ccc(OCC(=O)Nc2cc(-c3ccccc3)no2)cc1 [Compound 24]
- IC50 [2]: 95.1 nM
- IC50 [3]: 557 nM
- Binding in Site 2 radioligand competition screen (in words) [1]: moderate to strong binding

SMILES: O=C(COc1ccc(F)cc1)Nc1cc(-c2ccccc2)n[nH]1 [Compound 55]
- Binding in Site 2 radioligand competition screen (in words) [1]: moderate affinity

SMILES: O=C(COc1ccc(F)cc1)Nc1noc(-c2ccccc2)n1 [Compound 50]
- Binding in Site 2 radioligand competition screen (in words) [1]: bound more poorly than the corresponding isoxazole compound; also recorded: weak binders

SMILES: Cc1ccc(OCC(=O)Nc2cc(-c3ccccc3)no2)cc1C [Compound 52]
- IC50 [2]: 30.7 nM
- IC50 [3]: > 1000 nM
- Binding in Site 2 radioligand competition screen (in words) [1]: moderate to strong binding

SMILES: COc1ccccc1OCC(=O)Nc1cc(-c2ccccc2)no1 [Compound 27]
- Binding in Site 2 radioligand competition screen (in words) [1]: hinder binding

SMILES: O=C(COc1ccc(F)cc1)Nc1cc(-c2ccccc2)no1 [Compound 25]
- Binding in Site 2 radioligand competition screen (in words) [1]: weak binders

SMILES: Cc1ccc(OCC(=O)Nc2cc(-c3ccc(Br)cc3)no2)cc1C [Compound 28]
- IC50 [3]: 12.6 nM
- Binding in Site 2 radioligand competition screen (in words) [1]: moderate to strong binding

SMILES: Cc1ccc(N2CCN(c3cnn(-c4ccccc4)c(=O)c3Cl)CC2)cc1C [Compound 2]
- IC50 [2]: 490 nM

From article PMC8047729, “Identification of a nanomolar affinity α-synuclein fibril imaging probe by ultra-high throughput in silico screening” (Chemical Science, 2020)
